What was measured:
[1] = target: Adenosine A2A (Homo sapiens (Human), UniProt P29274); experiment: A2A Tag-lite HTRF assay (Example C); conditions: Tag-lite Adenosine A2A labeled cells, Red antagonist fluorescent ligand 12.5 nM, one-site competitive binding; read-out: A2A_Ki
Protocol: Example C. A2A Tag-Lite® HTRF Assay
Assays were conducted in black low volume 384-well polystyrene plates (Greiner 784076-25) in a final volume of 10 μL. Test compounds were first serially diluted in DMSO and 100 nl added to the plate wells before the addition of other reaction components. The final concentration of DMSO was 1%. Tag-lite® Adenosine A2A labeled cells (CisBio C1TT1A2A) were diluted 1:5 into Tag-lite buffer (CisBio LABMED) and spun 1200 g for 5 mins. The pellet was resuspended at a volume 10.4× the initial cell suspension volume in Tag-lite buffer, and Adenosine A2A Receptor Red antagonist fluorescent ligand (CisBio L0058RED) added at 12.5 nM final concentration. 10 ul of the cell and ligand mix was added to the assay wells and incubated at room temperature for 45 minutes before reading on a PHERAstar FS plate reader (BMG Labtech) with HTRF 337/620/665 optical module. Percent binding of the fluorescent ligand was calculated; where 100 nM of A2A antagonist control ZM 241385 (Tocris 1036) displaces the ligand 100% and 1% DMSO has 0% displacement. The % binding data versus the log of the inhibitor concentration was fitted to a one-site competitive binding model (GraphPad Prism version 7.02) where the ligand constant=12.5 nM and the ligand Kd=1.85 nM.

[2] = target: human adenosine A2B receptor (Homo sapiens (Human), UniProt P29275); experiment: Adenosine A2B receptor cyclic AMP GS assay (Example B); assay type: cell-based; conditions: HEK-293 cells expressing human A2B, agonist NECA 12 nM, cAMP accumulation (FRET); read-out: A2B_cAMP_EC50
human adenosine A2B receptor, sequence (P29275 whole entry): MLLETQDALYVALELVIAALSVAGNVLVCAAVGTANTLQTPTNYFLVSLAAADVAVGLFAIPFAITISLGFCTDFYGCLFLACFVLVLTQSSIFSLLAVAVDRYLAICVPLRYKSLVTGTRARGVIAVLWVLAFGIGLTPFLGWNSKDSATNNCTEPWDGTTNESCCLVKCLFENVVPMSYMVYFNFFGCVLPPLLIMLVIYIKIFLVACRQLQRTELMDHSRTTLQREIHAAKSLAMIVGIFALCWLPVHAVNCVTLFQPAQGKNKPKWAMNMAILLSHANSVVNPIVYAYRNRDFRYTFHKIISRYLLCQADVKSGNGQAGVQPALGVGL
Protocol: Example B. Adenosine A2B Receptor Cyclic AMP GS Assay
Stably transfected HEK-293 cells expressing the human adenosine A2B receptor (Perkin Elmer) were maintained in MEM culture medium with 10% FBS and 100 μg/ml Geneticin (Life Technologies). 18 to 24 hours prior to assay, geneticin was removed from culture. The cisbio cAMP-GS Dynamic kit utilizing the FRET (Fluorescence Resonance Energy Transfer) technology was used to measure cAMP accumulation in the cells. Compounds of the present disclosure at an appropriate concentration were mixed with 10000 cells/well in white 96 well half area plates (Perkin Elmer) for 30 min at RT gently shaking. Agonist, NECA (R&D Technologies) at 12 nM was added to each well for 60 min at RT gently shaking. Detection reagents, d2-labeled cAMP (acceptor) and anti-cAMP cryptate (donor) were added to each well for 60 min at RT gently shaking. Plates were read on Pherastar (BMG Labtech), fluorescence ratio 665/620 was calculated and EC50 determination was performed by fitting the curve of percent of control versus the log of the compound concentration using GraphPad Prism.

Adenosine A2A, sequence (P29274 whole entry): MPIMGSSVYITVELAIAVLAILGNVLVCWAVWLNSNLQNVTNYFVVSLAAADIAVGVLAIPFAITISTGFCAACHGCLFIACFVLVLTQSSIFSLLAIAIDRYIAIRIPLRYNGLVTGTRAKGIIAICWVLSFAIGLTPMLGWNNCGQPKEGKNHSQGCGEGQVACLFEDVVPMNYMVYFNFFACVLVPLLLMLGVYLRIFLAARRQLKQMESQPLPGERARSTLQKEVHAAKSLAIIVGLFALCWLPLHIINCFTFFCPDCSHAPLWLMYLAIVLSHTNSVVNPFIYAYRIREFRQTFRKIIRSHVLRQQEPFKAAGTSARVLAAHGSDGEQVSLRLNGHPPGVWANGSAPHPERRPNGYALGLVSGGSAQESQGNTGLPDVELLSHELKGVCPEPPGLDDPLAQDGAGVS

| Structure (SMILES) | Ki [1] | EC50 [2] |
| --- | --- | --- |
| N#Cc1cccc(-c2nc(N)n3nc(Cn4nnnc4-c4cccc(N)c4)nc3c2-c2ccncn2)c1 [Example 1, 3-(5-amino-2-((5-(3-aminophenyl)-1H-tetrazol-1-yl)methyl)-8-(pyrimidin-4-yl)-[1,2,4]triazolo[1,5-c]pyrimidin-7-yl)benzonitrile] | ≤ 10 nM | ≤ 10 nM |
| Cc1cccc(-c2nnnn2Cc2nc3c(-c4ccncn4)c(-c4cccc(C#N)c4)nc(N)n3n2)n1 [Example 2, 3-(5-amino-2-((5-(6-methylpyridin-2-yl)-1H-tetrazol-1-yl)methyl)-8-(pyrimidin-4-yl)-[1,2,4]triazolo[1,5-c]pyrimidin-7-yl)benzonitrile] | ≤ 10 nM | ≤ 10 nM |
| COc1cccc(-c2nnnn2Cc2nc3c(-c4ccncn4)c(-c4cccc(C#N)c4)nc(N)n3n2)n1 [Example 3, 3-(5-amino-2-((5-(6-methoxypyridin-2-yl)-1H-tetrazol-1-yl)methyl)-8-(pyrimidin-4-yl)-[1,2,4]triazolo[1,5-c]pyrimidin-7-yl)benzonitrile] | ≤ 10 nM | 10 to 100 nM |
| Cn1cc(-c2c(-c3cccc(C#N)c3)nc(N)n3nc(Cn4nnnc4-c4ccccn4)nc23)ccc1=O [Example 4, 3-(5-amino-8-(1-methyl-6-oxo-1,6-dihydropyridin-3-yl)-2-((5-(pyridin-2-yl)-1H-tetrazol-1-yl)methyl)-[1,2,4]triazolo[1,5-c]pyrimidin-7-yl)benzonitrile] | ≤ 10 nM | 10 to 100 nM |
| Cn1cc(-c2c(-c3cccc(C#N)c3)nc(N)n3nc(Cn4nnnc4-n4cccn4)nc23)ccc1=O [Example 5, 3-(2-((5-(1H-pyrazol-1-yl)-1H-tetrazol-1-yl)methyl)-5-amino-8-(1-methyl-6-oxo-1,6-dihydropyridin-3-yl)-[1,2,4]triazolo[1,5-c]pyrimidin-7-yl)benzonitrile] | ≤ 10 nM | 10 to 100 nM |
| Cn1cc(-c2c(-c3cccc(C#N)c3)nc(N)n3nc(Cn4nnnc4-c4cscn4)nc23)ccc1=O [Example 6, 3-(5-amino-8-(1-methyl-6-oxo-1,6-dihydropyridin-3-yl)-2-((5-(thiazol-4-yl)-1H-tetrazol-1-yl)methyl)-[1,2,4]triazolo[1,5-c]pyrimidin-7-yl)benzonitrile] | ≤ 10 nM | 10 to 100 nM |
| Cn1cc(-c2c(-c3cccc(C#N)c3)nc(N)n3nc(Cn4nnnc4-c4ncccn4)nc23)ccc1=O [Example 7, 3-(5-amino-8-(1-methyl-6-oxo-1,6-dihydropyridin-3-yl)-2-((5-(pyrimidin-2-yl)-1H-tetrazol-1-yl)methyl)-[1,2,4]triazolo[1,5-c]pyrimidin-7-yl)benzonitrile] | ≤ 10 nM | 10 to 100 nM |
| Cn1cc(-c2c(-c3cccc(C#N)c3)nc(N)n3nc(Cn4nnnc4-c4cnccn4)nc23)ccc1=O [Example 8, 3-(5-amino-8-(1-methyl-6-oxo-1,6-dihydropyridin-3-yl)-2-((5-(pyrazin-2-yl)-1H-tetrazol-1-yl)methyl)-[1,2,4]triazolo[1,5-c]pyrimidin-7-yl)benzonitrile] | ≤ 10 nM | 10 to 100 nM |
| Cn1nc(-c2c(-c3cccc(C#N)c3)nc(N)n3nc(Cn4nnnc4-c4ccccn4)nc23)ccc1=O [Example 9, 3-(5-amino-8-(1-methyl-6-oxo-1,6-dihydropyridazin-3-yl)-2-((5-(pyridin-2-yl)-1H-tetrazol-1-yl)methyl)-[1,2,4]triazolo[1,5-c]pyrimidin-7-yl)benzonitrile] | ≤ 10 nM | 10 to 100 nM |
| N#Cc1cccc(-c2nc(N)n3nc(Cn4nnnc4-c4ccccn4)nc3c2-c2ccncc2)c1 [Example 10, 3-(5-amino-2-((5-(pyridin-2-yl)-1H-tetrazol-1-yl)methyl)-8-(pyridin-4-yl)-[1,2,4]triazolo[1,5-c]pyrimidin-7-yl)benzonitrile] | ≤ 10 nM | ≤ 10 nM |
| CN(C)c1cc(-c2c(-c3cccc(C#N)c3)nc(N)n3nc(Cn4nnnc4-c4ccccn4)nc23)ccn1 [Example 11, 3-(5-amino-8-(2-(dimethylamino)pyridin-4-yl)-2-((5-(pyridin-2-yl)-1H-tetrazol-1-yl)methyl)-[1,2,4]triazolo[1,5-c]pyrimidin-7-yl)benzonitrile] | ≤ 10 nM | ≤ 10 nM |
| N#Cc1cccc(-c2nc(N)n3nc(Cn4nnnc4-c4ccccn4)nc3c2-c2ccnc(N)c2)c1 [Example 12, 3-(5-amino-8-(2-aminopyridin-4-yl)-2-((5-(pyridin-2-yl)-1H-tetrazol-1-yl)methyl)-[1,2,4]triazolo[1,5-c]pyrimidin-7-yl)benzonitrile] | ≤ 10 nM | ≤ 10 nM |
| N#Cc1cccc(-c2nc(N)n3nc(Cc4c(F)cccc4-c4ccncc4)nc3c2-c2ccncc2)c1 [Example 13, 3-(5-amino-2-(2-fluoro-6-(pyridin-4-yl)benzyl)-8-(pyridin-4-yl)-[1,2,4]triazolo[1,5-c]pyrimidin-7-yl)benzonitrile] | ≤ 10 nM | ≤ 10 nM |
| N#Cc1cccc(-c2nc(N)n3nc(Cc4c(F)cccc4-c4ccnc(N)c4)nc3c2-c2ccnc(N)c2)c1 [Example 14, 3-(5-amino-8-(2-aminopyridin-4-yl)-2-(2-(2-aminopyridin-4-yl)-6-fluorobenzyl)-[1,2,4]triazolo[1,5-c]pyrimidin-7-yl)benzonitrile] | ≤ 10 nM | ≤ 10 nM |
| Cc1cccnc1CNc1nc2c(-c3ccc(=O)n(C)c3)c(-c3cccc(C#N)c3)nc(N)n2n1 [Example 15, 3-(5-amino-8-(1-methyl-6-oxo-1,6-dihydropyridin-3-yl)-2-(((3-methylpyridin-2-yl)methyl)amino)-[1,2,4]triazolo[1,5-c]pyrimidin-7-yl)benzonitrile] | ≤ 10 nM | ≤ 10 nM |
| CCn1cc(-c2c(-c3cccc(C#N)c3)nc(N)n3nc(NCc4ncccc4C)nc23)ccc1=O [Example 16, 3-(5-amino-8-(1-ethyl-6-oxo-1,6-dihydropyridin-3-yl)-2-(((3-methylpyridin-2-yl)methyl)amino)-[1,2,4]triazolo[1,5-c]pyrimidin-7-yl)benzonitrile] | ≤ 10 nM | ≤ 10 nM |
| Cc1cccnc1CNc1nc2c(-c3ccc(=O)n(C)n3)c(-c3cccc(C#N)c3)nc(N)n2n1 [Example 17, 3-(5-amino-8-(1-methyl-6-oxo-1,6-dihydropyridazin-3-yl)-2-(((3-methylpyridin-2-yl)methyl)amino)-[1,2,4]triazolo[1,5-c]pyrimidin-7-yl)benzonitrile] | ≤ 10 nM | ≤ 10 nM |
| Cc1cccnc1COc1nc2c(-c3ccc(=O)n(C)c3)c(-c3cccc(C#N)c3)nc(N)n2n1 [Example 18, 3-(5-amino-8-(1-methyl-6-oxo-1,6-dihydropyridin-3-yl)-2-((3-methylpyridin-2-yl)methoxy)-[1,2,4]triazolo[1,5-c]pyrimidin-7-yl)benzonitrile] | ≤ 10 nM | ≤ 10 nM |
| Cc1cccnc1COc1nc2c(-c3ccc(=O)n(C)n3)c(-c3cccc(C#N)c3)nc(N)n2n1 [Example 19, 3-(5-amino-8-(1-methyl-6-oxo-1,6-dihydropyridazin-3-yl)-2-((3-methylpyridin-2-yl)methoxy)-[1,2,4]triazolo[1,5-c]pyrimidin-7-yl)benzonitrile] | ≤ 10 nM | ≤ 10 nM |
| Cc1cnccc1-c1c(-c2cccc(C#N)c2)nc(N)n2nc(OCc3ncccc3C)nc12 [Example 20, 3-(5-amino-2-((3-methylpyridin-2-yl)methoxy)-8-(3-methylpyridin-4-yl)-[1,2,4]triazolo[1,5-c]pyrimidin-7-yl)benzonitrile] | ≤ 10 nM | ≤ 10 nM |

From patent US20250034153A1, “TRIAZOLOPYRIMIDINES AS A2A / A2B INHIBITORS” (Incyte Corporation, priority 2019, published 2025)
